Laboratory results taken from publication PMC9933440 (Crystal Growth & Design, 2022).
Where two headings read alike, the source gives them in different places.

Experiments:
[1] = ref 77 (4AP), ref 78 (4DMP), ref 79 (PPZ); cited from earlier work
[2] = pKa (base) – pKa (acid); for ΔpKa for MEL: hydroxyl group of MEL; for ΔpKa for PRM: hydroxyl group of PRM
[3] = cited from earlier work
[4] = cited from earlier work; remark: listed apart in the source
[5] = cited from earlier work; remark: listed apart in the source
physchem = conditions: pH 6.5
Method: Solubility experiments were conducted in sodium phosphate buffer solutions at pH 6.5 and 37 °C to simulate intestinal physiological conditions. For each experiment, an excess crystalline solid was sieved through a 300 μm sieve and introduced into a flask with a screw top containing 100 mL of the medium. The solution was stirred at 200 rpm using a magnetic stir bar for 48 h to reach the equilibrium state. […] After each sampling, the volume of the liquid removed from the suspension was not compensated. The withdrawn suspension was filtered through 0.2 μm nylon filters and diluted prior to high-performance liquid chromatography (HPLC) analysis. The solubility experiment for each crystal form was repeated in triplicate. After the last sample collection, the remaining solid material in the suspension was filtered, dried, and characterized by IR and PXRD.
A C18 HPLC column (YMC-Pack ODS-A column, 4.6 mm × 250 mm, 5 μm) with a flow rate of 1 mL min^–1 was employed, and the column temperature was set at 25 °C. The binary mobile phase consisted of acetonitrile and sodium phosphate buffer (pH 6.5) in a volume ratio of 25:75. The samples were diluted appropriately with the mobile phase, and the absorbance was measured at 347 nm.

[6] = cited from earlier work; remark: listed apart in the source

Nc1ccncc1 [4AP, 4-aminopyridine]
pKa in water (salt former) [1]: 9.17[77] | ΔpKa for MEL [2]: 8.08 | ΔpKa for PRM [2]: 7.31

CN(C)c1ccncc1 [4DMP, 4-dimethylaminopyridine]
ΔpKa for MEL [2]: 8.61 | ΔpKa for PRM [2]: 7.84

CN1C(C(=O)Nc2ccccn2)=C(O)c2sc(Cl)cc2S1(=O)=O.CNC(=O)NC [LRM 1,3-dimethyl urea]
IDR vs parent API (fold) ([3]; pH 1.2): 28 x | IDR vs parent API (fold) ([3]; pH 7.4): 19 x | bioavailability vs parent API (fold) [4]: 2.5 x

CN1C(C(=O)Nc2ccccn2)=C(O)c2sc(Cl)cc2S1(=O)=O.O=C(O)c1ccc(O)cc1 [LRM 4-hydroxy benzoic acid]
solubility vs parent API (fold) ([5]; in H2O): improved solubility in H2O (x 1.6–6.9)

CN1C(C(=O)Nc2ccccn2)=C(O)c2sc(Cl)cc2S1(=O)=O.O=C(O)c1ccccc1 [LRM benzoic acid]
solubility vs parent API ([5]; in H2O): no solubility advantage in H2O

CN1C(C(=O)Nc2ccccn2)=C(O)c2sc(Cl)cc2S1(=O)=O.O=C(O)CCCC(=O)O [LRM glutaric acid]
solubility vs parent API ([5]; in H2O): no solubility advantage in H2O

CN1C(C(=O)Nc2ccccn2)=C(O)c2sc(Cl)cc2S1(=O)=O.O=C(O)c1ccccc1O [LRM salicylic acid]
solubility vs parent API ([5]; in H2O): no solubility advantage in H2O

Cc1cnc(NC(=O)C2=C(O)c3ccccc3S(=O)(=O)N2C)s1.O=C(O)c1ccc(O)cc1 [MEL 4-hydroxybenzoic acid]
bioavailability vs parent API (fold) [4]: 1.1–1.6 x | solubility vs parent API ([5]; pH 6.5): higher solubility

CC(=O)Oc1ccccc1C(=O)O.Cc1cnc(NC(=O)C2=C(O)c3ccccc3S(=O)(=O)N2C)s1 [MEL Aspirin]
bioavailability vs parent API (fold) [4]: 4.4 x | solubility vs parent API (fold) ([5]; pH 7.4): 44 x

Cc1cnc(NC(=O)C2=C([O-])c3ccccc3S(=O)(=O)N2C)s1.O.[K+] [MEL KOH H2O]
dissolution behavior vs parent API ([3]; pH 5.6): improved dissolution behavior | bioavailability vs parent API ([4]; in vivo): no bioavailability advantage

Cc1cnc(NC(=O)C2=C(O)c3ccccc3S(=O)(=O)N2C)s1.O=C(O)/C=C/C(=O)O [MEL fumaric acid]
bioavailability vs parent API [4]: no bioavailability advantage

Cc1cnc(NC(=O)C2=C(O)c3ccccc3S(=O)(=O)N2C)s1.O=C(O)CO [MEL glycolic acid]
bioavailability vs parent API [4]: no bioavailability advantage

Cc1cnc(NC(=O)C2=C(O)c3ccccc3S(=O)(=O)N2C)s1.O=C(O)CCc1ccccc1 [MEL hydrocinnamic acid]
bioavailability vs parent API [4]: no bioavailability advantage

Cc1cnc(NC(=O)C2=C(O)c3ccccc3S(=O)(=O)N2C)s1 [MEL, meloxicam]
time to highest solubility / maximum dissolved concentration / equilibrium (physchem): 90 min | degradation at lower pH ([6]; pH <3): significant degradation

CN1C(C(=O)Nc2ccccn2)=C(O)c2ccccc2S1(=O)=O.OCCNCCO [PRM diethanolamine]
bioavailability vs parent API [4]: higher bioavailability

CN1C(C(=O)Nc2ccccn2)=C(O)c2ccccc2S1(=O)=O.NCCO [PRM ethanolamine]
bioavailability vs parent API [4]: higher bioavailability

CN1C(C(=O)Nc2ccccn2)=C(O)c2ccccc2S1(=O)=O.NS(=O)(=O)c1cc(C(=O)O)c(NCc2ccco2)cc1Cl [PRM furosemide]
stability under accelerated aging [6]: good stability under accelerated aging | thermal stability [6]: good thermal stability

CN1C(C(=O)Nc2ccccn2)=C(O)c2ccccc2S1(=O)=O.OCCN(CCO)CCO [PRM triethanolamine]
bioavailability vs parent API [4]: higher bioavailability

CN1C(C(=O)Nc2ccccn2)=C(O)c2ccccc2S1(=O)=O.NC(N)=O [PRM urea]
solubility vs parent API [5]: no solubility advantage

CN1C(C(=O)Nc2ccccn2)=C(O)c2ccccc2S1(=O)=O.COc1cc(C=O)ccc1O [PRM vanillin]
IDR vs parent API ([3]; pH 1.2): no solubility and IDR advantages | dissolution rates in the sink condition ([3]; pH 1.2): superior dissolution rates | solubility vs parent API ([5]; pH 1.2): no solubility and IDR advantages

CN1C(C(=O)Nc2ccccn2)=C(O)c2sccc2S1(=O)=O.Cl [TNM HCl]
IDR vs parent API ([3]; pH 7): no solubility and IDR advantages at pH 7 | solubility vs parent API ([5]; pH 7): no solubility and IDR advantages at pH 7

CN1C(C(=O)Nc2ccccn2)=C(O)c2sccc2S1(=O)=O.O=C(O)c1ccccc1 [TNM benzoic acid]
IDR vs parent API (fold) ([3]; pH 7): 2 x | solubility vs parent API ([5]; pH 7): no solubility advantage

CN1C(C(=O)Nc2ccccn2)=C(O)c2sccc2S1(=O)=O.CS(=O)(=O)O [TNM methanesulfonic acid]
IDR vs parent API ([3]; pH 7): no solubility and IDR advantages at pH 7 | solubility vs parent API ([5]; pH 7): no solubility and IDR advantages at pH 7

C1CNCCN1.CN1C(C(=O)Nc2ccccn2)=C(O)c2sccc2S1(=O)=O [TNM piperazine]
IDR vs parent API (fold) ([3]; pH 7): 2.5 x | solubility vs parent API (fold) ([5]; pH 7): 5.5 x

CN1C(C(=O)Nc2ccccn2)=C(O)c2sccc2S1(=O)=O.Oc1cccc(O)c1O [TNM pyrogallol]
IDR vs parent API (fold) ([3]; pH 7): 2.4–4.2 x | solubility vs parent API (fold) ([5]; pH 7): 5.8–10.1 x

CN1C(C(=O)Nc2ccccn2)=C(O)c2sccc2S1(=O)=O.O=C(O)c1ccccc1O [TNM salicylic acid]
IDR vs parent API ([3]; pH 4.5): no IDR advantage at pH 4.5 and 6.8 | IDR vs parent API ([3]; pH 6.8): no IDR advantage at pH 4.5 and 6.8 | IDR vs parent API ([3]; pH 7): no solubility and IDR advantages at pH 7 | solubility vs parent API ([5]; pH 7): no solubility and IDR advantages at pH 7
